In patent publication US6573063B2, “Methods and systems for assessing biological materials using optical and spectroscopic detection techniques” (Cytoscan Sciences, LLC, priority 1995, dated 2003):
Values belong to the molecule of their own block, whether it stands above or below them.

Assays:
hippocampal slices = assay: Spontaneous interictal-like bursts in hippocampal slices after additions to the bathing medium; type: cell-based, rat; settings: 4 slices
Experimental: (§1) Sprague-Dawley rats (male and female; 25 to 35 days old) were prepared as described in Aghajanian, A. K. and Rasmussen, K., Synapse 31:331, 1989; and Buckmaster, P. S., Strowbridge, B. W., Schwartzdroin, P. A., J. Neurophysiol. 70:1281, 1993. In most hippocampal slice experiments, simultaneous extracellular field electrode recordings were obtained from CA1 and CA3 areas. For stimulation-evoked afterdischarge (13 slices, 8 animals), the concentration of Mg^2+ in the bathing medium was reduced to 0.9 mM. A bipolar tungsten stimulating electrode was placed on the Schaffer collaterals to evoke synaptically driven field responses in CA1; stimuli consisted to 100 to 300-μs-duration pulses at an intensity of four times population-spike threshold. After discharges were evoked by a 2-s train of such stimuli delivered at 60 Hz. […] In all treatments, perfusion with furosemide-containing medium was begun after a consistent level of bursting had been established.

[1] = system: hippocampal tissue slice (CA1, Schaffer collateral stimulation); assay: Stimulation-evoked afterdischarge in acute hippocampal slice: extracellular field recording and imaging of intrinsic optical signals; type: cell-based, rat
Experimental: as §1
For imaging of intrinsic optical signals, the tissue was illuminated with a beam of white light (tungsten filament light and lens system; Dedotec USA, Lodi, N.J.) directed through the microscope condenser. The light was controlled and regulated (power supply: Lambda Electronics, Melville, N.Y.) to minimize fluctuations and filtered (695 nm long-pass) so that the slice was transilluminated with long wavelengths (red). Image frames were acquired with a charge-coupled device camera (Dage-MTI) at 30 Hz and were digitized at 8 bits with a spatial resolution of 512 by 480 pixels by means of an Imaging Technology Series 151 imaging system; gains and offsets of the camera-control box and the analog-to-digital board were adjusted to optimize the sensitivity of the system. Imaging hardware was controlled by a 486-PC-compatible computer running software written by D. Hochman and developed with commercially available software tools (Microsoft's C/C++ Compiler and Imaging Technology's ITEX library). To increase signal-to-noise ratio, an averaged image was composed from 16 individual image-frames, integrated over 0.5 s and averaged together. An experimental series typically involved the continuous acquisition of a series of averaged images over a several minute time period; at least 10 of these averaged images were acquired as control images before stimulation. Pseudocolored images were calculated by subtracting the first control image from subsequently acquired images and assigned a color lookup table to the pixel values. For these images, usually a linear low-pass filter was used to remove high-frequency noise and a linear-histogram stretch was used to map the pixel values over the dynamic range of the system. All operations on these images were linear so that quantitative information was preserved.

[2] = system: brain tumor and normal tissue; assay: Optical imaging of brain tumor through the intact cranium after intravenous dye injection
[3] = 20 minutes of perfusion with medium containing 2.5 mM furosemide
[4] = following treatment with furosemide (FIG. 3E)

Structure (SMILES): Nc1ccncc1 [4-AP]
- spontaneous interictal-like bursts, average (hippocampal slices; 200 to 300 μM 4-AP in bathing medium, 2 animals): 33 bursts/min

Structure (SMILES): CN1CCc2cc3c(cc2[C@H]1[C@@H]1OC(=O)c2c1ccc1c2OCO1)OCO3 [bicuculine]
- spontaneous interictal-like bursts, average (hippocampal slices; 50 to 100 bicuculine in bathing medium, 3 animals): 14 bursts/min

Structure (SMILES): NS(=O)(=O)c1cc(C(=O)O)c(NCc2ccco2)cc1Cl [furosemide]
- field response to the test pulse [1, 3]: hyperexcitable field response (multiple population spikes)
- stimulation-evoked optical changes [1, 3]: blocked
- electrical afterdischarge activity ([1]; 20 minutes of perfusion with medium containing 2.5 mM furosemide, 2 s stimulation at 60 Hz): blocked
- response pattern after washout ([1]; following 45 minutes of perfusion with normal bathing medium): restoration of the initial response pattern
- epileptiform activity during electrical stimulation [1, 4]: blocks
- intrinsic optical signal during electrical stimulation [1, 4]: blocks

- dye in normal tissue ([2]; one minute after dye injection): cleared the dye
- dye in tumor region ([2]; one minute after dye injection): still retained
Structure (SMILES): CC1(C)C(/C=C/C=C/C=C/C=C2\N(CCCCS(=O)(=O)O)c3ccc4ccccc4c3C2(C)C)=[N+](CCCCS(=O)(=O)[O-])c2ccc3ccccc3c21 [indocyanine green]
- dye distribution in normal and tumor tissue ([2]; five seconds after dye injection): profuse through both normal and tumor tissue
